Experimental data published in paper PMC6207720, “Identification and antitumor activity of a novel inhibitor of the NIMA-related kinase NEK6” (Scientific Reports, 2018).
Read-outs that look alike come from different tables or passages of the source.

Assays:
PEO1 (ovary) = test: Cell-based cytotoxicity assay (ATPlite), PEO1; design: species or system human; conditions: 72 h
Source text: The following human carcinoma cell lines were used for the study: MDA-MB-231 and MCF-7 (breast cancer; ATCC, Sesto San Giovanni, MI), PEO1 and COV318 (ovarian cancer; ECACC, Salisbury, UK and ATCC), HCT-15 and SW948 (colon cancer; Public Health England, Salisbury, UK and ATCC), NCI-H1975 and NCI-H1299, (lung cancer; ATCC). Cells were routinely tested free of mycoplasma (MycoAlert mycoplasma detection kit, LONZA, Rockland, ME, USA) and validated by STR (Short Tandem Repeat) DNA profiling (BMR Genomics srl, PD). Cells were grown following supplier indication, in a fully humidified atmosphere of 5% CO2/95% air. All the reagents were purchased from Sigma-Aldrich (St. Louis, MO), if not otherwise specified.

NEK6 [1] = molecular target: T1, NEK6 (Homo sapiens, UniProt Q9HC98); test: Off-chip Mobility Shift Assay (MSA), NEK6; assay type: biochemical; conditions: CARNA Biosciences Study CBS170097, ATP 75 µM
T1 construct: purchased Carna 05-130
T1 sequence (Q9HC98 whole entry): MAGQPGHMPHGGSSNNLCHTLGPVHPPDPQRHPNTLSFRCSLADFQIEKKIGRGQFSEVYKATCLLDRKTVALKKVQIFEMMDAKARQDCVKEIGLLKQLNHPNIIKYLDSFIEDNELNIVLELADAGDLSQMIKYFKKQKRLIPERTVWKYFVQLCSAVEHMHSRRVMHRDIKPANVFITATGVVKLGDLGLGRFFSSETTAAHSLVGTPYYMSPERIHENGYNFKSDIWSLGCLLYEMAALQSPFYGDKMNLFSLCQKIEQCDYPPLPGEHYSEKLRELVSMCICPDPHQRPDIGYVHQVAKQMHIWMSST
Method: Therefore, we decided to evaluate the selectivity of compound 8 against a panel of NEK kinases at 10 µM, using the technique of Off-chip Mobility shift assay. This concentration was chosen according to the guidelines proposed by Knight and Shokat, since the probability of off-target effects increases dramatically above 10 µM[36]. Furthermore, ATP concentration was set to approximate the Km,ATP for each kinase, so that the resulting selectivity profile directly reflects the intrinsic affinities of the inhibitor[37]. […] A major consequence of this substitution may be the redistribution of surface charges at the flexible activation loop resulting in an altered electrostatic potential and ability of NEK6 kinase to interact with other molecules.
The inhibitory activity of compounds 8 and 21 on NEK6 was also verified with MSA technique (Off-chip Mobility shift assay) (CARNA Biosciences Study ID: CBS170097, CARNA Biosciences, Kobe). […] PKR Inhibitor was used as positive control. For profiling study against NEK kinases (i.e. NEK1, NEK2, NEK6, NEK7, NEK9) (CARNA Biosciences Study ID: CBS170098), 8 was tested at 10 μM and ATP concentration approximating Km for each kinase. Assay condition for kinases are available on “Kinase profiling book” downloading by www.carnabio.com (https://www.carnabio.com/output/pdf/ProfilingProfilingBook_en.pdf).

NEK6 [2] = molecular target: T1, NEK6; test: LANCE-Ultra NEK6 kinase assay; assay type: biochemical; conditions: 100 µM ATP
Method: The twenty-five compounds resulting from virtual screening were firstly tested for the ability to inhibit the enzymatic activity of NEK6 at a single concentration of 30 µM, using LANCE technology. Quercetin, able to inhibit a broad panel of kinase, was used as positive control of inhibition[12],[30]. This initial screening allowed the identification of two compounds determining >70% NEK6 inhibition at 30 µM, i.e. compound 8 (6-hydroxy-4-methyl-2-oxo-5-[(5-phenyl (2-furyl)) methylene] pyridine-3-carbonitrile), and 21 (6-amino-2-phenyl-5,7,9-triazatetracyclo[8.7.0.0^3,^8 0^11,^16]heptadeca-1(10),3(8),6,11,13,15 hexaene-4,17-dione) (Fig. 4). […] The possible binding mode of compound 8 in the ATP-binding site of NEK6 as well as nonbonded interactions across the complex interface are shown in Fig. 6. Compound 8 may use its phenyl ring and furyl ring to form hydrophobic Pi-alkyl interactions with Ala72 (strand β3), Ala125 (hinge region) and Val59 (strand β2) of the ATP binding site (Fig. 6B). […] This is particulary relevant when considering that C–H···O hydrogen bonds play an important role in the ligand-binding process[33]–[35].
Compounds (i.e. 1 to 25) (Molport, Riga, LV-1011, Latvia) were dissolved in DMSO 100% as 10 mM stock and stored at −20 C. Activity of the compounds as NEK6 inhibitors was tested using LANCE NEK6 Ultra Kinase Assays protocol (U-TRF #25 technical note, PerkinElmer, Monza, MB). Compounds were first tested at 30 µM and incubated with 4 nM NEK6 (Carna, Chuo-ku, Kobe, Japan, # 05-130), 50 nM ULight-p70 S6K Peptide (PerkinElmer # TRF0126) and 100 μM ATP (Sigma-Aldrich, Saint Louis, U.S.A, # A2383) at room temperature. Kinase reactions were terminated after 90 minutes by the addition of EDTA and the signal was read with the Enspire plate reader (PerkinElmer) in TR-FRET mode (excitation at 320 nm and emission at 665 nm) after 60 minutes. Inhibition of NEK6 activity was calculated as percentage with respect to the control sample (100% of activity). Quercetin was used as positive control (Molport). […] For each compound the dose inhibiting 50% of NEK6 activity (IC50) was calculated using the GraphPad Prism 5.0 Software (San Diego, CA, USA).

Question: How did the IC50 (PEO1 (ovary); Homo sapiens, PEO1, paclitaxel alone, read-out: IC50 paclitaxel) turn out when `CC(=O)O[C@H]1C(=O)[C@@]2(C)[C@H]([C@H](OC(=O)c3ccccc3)[C@]3(O)C[C@H](OC(=O)[C@H](O)[C@@H](NC(=O)c4ccccc4)c4ccccc4)C(C)=C1C3(C)C)[C@]1(OC(C)=O)CO[C@@H]1C[C@@H]2O` [paclitaxel] was run?
Answer: Its IC50 is 0.007 ± 1e-06 µM.

Question: Which IC50 (NEK6 [1]) does the source give for `Nc1nc2c(c(=O)[nH]1)C(c1ccccc1)C1=C(N2)c2ccccc2C1=O` (centres unmarked) [Compound 21, 6-amino-2-phenyl-5,7,9-triazatetracyclo[8.7.0.0^3,^8 0^11,^16]heptadeca-1(10),3(8),6,11,13,15 hexaene-4,17-dione] here?
Answer: Its IC50 is 49.8 µM.

Question: What about the IC50 (NEK6 [2]; LANCE-Ultra, mean ± SEM of 4 independent experiments) of the same molecule?
Answer: The IC50 was 2.6 ± 0.05 µM.

Question: And the inhibition at 30 µM (NEK6 [2]; single concentration 30 µM, LANCE)?
Answer: The inhibition at 30 µM was > 70%.

Question: Which IC50 (PEO1 (ovary); PEO1, cisplatin alone, read-out: Cisplatin IC50 (mean ± SEM)) does the source give for `N.N.[Cl][Pt][Cl]` [cisplatin] here?
Answer: The IC50 was 7.9 ± 0.65 µM.
